{"source": "PubChem BioAssay AID1963837", "about": "(Molecular Pharmacology Branch, DTP, NCI, 2024)", "system": "843126-344-R-J1-PDC complex spheroid viability", "assay": "Anticancer human tumor 843126-344-R-J1-PDC patient-derived melanoma cell line growth inhibition [POLQ]", "conditions": "for viability, T/C: stronger effect = lower value", "experimental": "Multicellular complex tumor spheroid response to Polymerase (POL) inhibitors (novobiocin, ART-558, RP6685) in combination with a variety of drugs and investigational agents in selected tumor cell lines\nThe POL inhibitors (novobiocin, ART-558, and RP6685) were evaluated both individually and in combination with standard of care and investigational anticancer small molecules within a complex spheroid model of solid tumors. . Complex spheroids include a stromal component modeled by human endothelial cells (HUVEC) and fibroblasts modeled by human mesenchymal stem cells (MSCs). The concentration ranges selected for each drug and investigational agent were based upon clinically achievable concentrations if the clinical Cmax of the agent was known.\nCompounds. The drugs and investigational agents: novobiocin (NSC847541), ART-558 (NSC835418), RP-6685 (NSC848927), peposertib (NSC802822), ceralasertib (NSC780249), elimusertib (NSC800525), camonsertib (NSC841442), AZD-1390 (NSC803789), olaparib (NSC753686), talazoparib (NSC767125), rucaparib (NSC756644), sotorasib (NSC818433), MRTX-1133 (NSC836407), SN-38 (NSC673596), topotecan (NSC609699), epotoside (NSC141540), doxorubicin (NSC123127), gemcitabine (NSC613327), 5-fluorouracil (NSC19893), paclitaxel (NSC125973), vemurafenib (NSC761431), MSA-2 (NSC828583), SN-011 (NSC837082), adavosertib (NSC754352), prexasertib (NSC758257), carboplatin (NSC241240) and oxaliplatin (NSC266046), were obtained from the National Cancer Institute (NCI) Developmental Therapeutics Program Chemical Repository (21). The FDA-approved anticancer drug set is available from the Developmental Therapeutics Program at https://dtp.cancer.gov/organization/dscb/obtaining/. […] The stock solutions were prepared in dimethyl sulfoxide (DMSO, Sigma-Aldrich, St. Louis, MO, cat. D2650), except for the platinum compounds which were prepared in saline (Quality Biological, Gaithersburg, MD, cat. 114-055-101), at 800-fold the tested concentration and stored at -70 degrees C prior to their use. All drugs and investigational agents were tested over a range starting from a high concentration at or near the clinical Cmax and decreasing in half-log increments. If the clinical Cmax for an agent had not been determined, the highest concentration tested was 10 microM, except for SN-38, which was tested at a high concentration of 1 microM.\nCell Culture. All cells were maintained in an incubator at 37 degrees C and 5% CO2 with 95% humidity. The PDC lines were cultured according to standard operating procedures established by the NCI PDMR (https://pdmr.cancer.gov). Table 3 of the manuscript, lists the cell lines along with the number of the three cell types plated to form the mct-spheroids and media for tumor cell growth. After thawing, all PDC lines, except 997537-175-T-J1-PDC and 415267-285-R-J2-PDC, were cultured in Matrigel-coated flasks prepared with a working solution of 1X Ham's F-12 nutrient mix, without supplementation (Thermo Fisher Scientific, cat. 11765054), 100 U/mL penicillin-streptomycin (Thermo Fisher Scientific, cat. 15140122), and 2.5% Matrigel (Corning Inc., Corning, NY, cat. 354248) for the first three passages. The two PDC lines 997537-175-T-J1-PDC and 415267-285-R-J2-PDC were cultured on uncoated flasks. The 857933-349-R-J2-PDC line was cultured in 6C/Colon 1B media containing advanced DMEM/F-12 (Thermo Fisher Scientific, cat. 12634028), 10 mM HEPES (Thermo Fisher Scientific, cat. 15630080), 1X GlutaMAX supplement (Thermo Fisher Scientific, cat. 35050061), 0.1 mg/mL primocin (InvivoGen, San Diego, CA, cat. ant-pm-2), 10% defined fetal bovine serum, heat inactivated (HyClone Laboratories Inc., Logan, UT, cat. SH30070.03HI), 50% L-WRN conditioned media (ATCC, cat. CRL-3276), 1.25 mM N-Acetyl-L-cysteine (Sigma-Aldrich, cat. A9165), 10 mM nicotinamide (Sigma-Aldrich, cat. N0636), 1X B-27 supplement (Thermo Fisher Scientific, cat. 17504044), 1X N-2 supplement (Thermo Fisher Scientific, cat. […]", "note": "Several values for one entry are separate records, joined by “and”; a condition that tells them apart may be missing. Identical values can stand only once."}
{"compound": "O=c1[nH]cc(F)c(=O)[nH]1", "note": "+ Cc1cccc(N(C)C(=O)C2C(O)CCN2c2nc(C)cc(C(F)(F)F)c2C#N)c1;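 as to viability, T/C: spheroids exposed to drugs for seven days before readout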", "values": [{"measurement": "IC50", "setting": "curve of first compound, second compound 0.0316 µM", "value": "> 10", "unit": "µM"}, {"measurement": "IC50", "setting": "curve of first compound, second compound 0.1 µM", "value": "> 10", "unit": "µM"}, {"measurement": "IC50", "setting": "curve of first compound, second compound 0.316 µM", "value": "> 10", "unit": "µM"}, {"measurement": "IC50", "setting": "curve of first compound, second compound 1 µM", "value": "> 10", "unit": "µM"}, {"measurement": "IC50", "setting": "curve of first compound, second compound 3.16 µM", "value": "> 10", "unit": "µM"}, {"measurement": "IC50", "setting": "curve of first compound, second compound 10 µM", "value": "> 10", "unit": "µM"}, {"measurement": "viability, T/C", "setting": "second compound 0.0316 µM, first compound 0.0316 µM", "value": 101, "unit": "%"}, {"measurement": "viability, T/C", "setting": "second compound 0.0316 µM, first compound 0.1 µM", "value": 112, "unit": "%"}, {"measurement": "viability, T/C", "setting": "second compound 0.0316 µM, first compound 0.316 µM", "value": 104, "unit": "%"}, {"measurement": "viability, T/C", "setting": "second compound 0.0316 µM, first compound 1 µM", "value": 101, "unit": "%"}, {"measurement": "viability, T/C", "setting": "second compound 0.0316 µM, first compound 3.16 µM", "value": 87.3, "unit": "%"}, {"measurement": "viability, T/C", "setting": "second compound 0.0316 µM, first compound 10 µM", "value": 79.3, "unit": "%"}, {"measurement": "viability, T/C", "setting": "second compound 0.1 µM, first compound 0.0316 µM", "value": 99.8, "unit": "%"}, {"measurement": "viability, T/C", "setting": "second compound 0.1 µM, first compound 0.1 µM", "value": 98.3, "unit": "%"}, {"measurement": "viability, T/C", "setting": "second compound 0.1 µM, first compound 0.316 µM", "value": 96.5, "unit": "%"}, {"measurement": "viability, T/C", "setting": "second compound 0.1 µM, first compound 1 µM", "value": 97.5, "unit": "%"}, {"measurement": "viability, T/C", "setting": "second compound 0.1 µM, first compound 3.16 µM", "value": 81.5, "unit": "%"}, {"measurement": "viability, T/C", "setting": "second compound 0.1 µM, first compound 10 µM", "value": 93.2, "unit": "%"}, {"measurement": "viability, T/C", "setting": "second compound 0.316 µM, first compound 0.0316 µM", "value": 105, "unit": "%"}, {"measurement": "viability, T/C", "setting": "second compound 0.316 µM, first compound 0.1 µM", "value": 108, "unit": "%"}, {"measurement": "viability, T/C", "setting": "second compound 0.316 µM, first compound 0.316 µM", "value": 96.7, "unit": "%"}, {"measurement": "viability, T/C", "setting": "second compound 0.316 µM, first compound 1 µM", "value": 82.2, "unit": "%"}, {"measurement": "viability, T/C", "setting": "second compound 0.316 µM, first compound 3.16 µM", "value": 110, "unit": "%"}, {"measurement": "viability, T/C", "setting": "second compound 0.316 µM, first compound 10 µM", "value": 103, "unit": "%"}, {"measurement": "viability, T/C", "setting": "second compound 1 µM, first compound 0.0316 µM", "value": 101, "unit": "%"}, {"measurement": "viability, T/C", "setting": "second compound 1 µM, first compound 0.1 µM", "value": 88.6, "unit": "%"}, {"measurement": "viability, T/C", "setting": "second compound 1 µM, first compound 0.316 µM", "value": 107, "unit": "%"}, {"measurement": "viability, T/C", "setting": "second compound 1 µM, first compound 1 µM", "value": 110, "unit": "%"}, {"measurement": "viability, T/C", "setting": "second compound 1 µM, first compound 3.16 µM", "value": 113, "unit": "%"}, {"measurement": "viability, T/C", "setting": "second compound 1 µM, first compound 10 µM", "value": 96.5, "unit": "%"}, {"measurement": "viability, T/C", "setting": "second compound 3.16 µM, first compound 0.0316 µM", "value": 99.3, "unit": "%"}, {"measurement": "viability, T/C", "setting": "second compound 3.16 µM, first compound 0.1 µM", "value": 94.5, "unit": "%"}, {"measurement": "viability, T/C", "setting": "second compound 3.16 µM, first compound 0.316 µM", "value": 113, "unit": "%"}, {"measurement": "viability, T/C", "setting": "second compound 3.16 µM, first compound 1 µM", "value": 95.8, "unit": "%"}, {"measurement": "viability, T/C", "setting": "second compound 3.16 µM, first compound 3.16 µM", "value": 103, "unit": "%"}, {"measurement": "viability, T/C", "setting": "second compound 3.16 µM, first compound 10 µM", "value": 91.5, "unit": "%"}, {"measurement": "viability, T/C", "setting": "second compound 10 µM, first compound 0.0316 µM", "value": 91.1, "unit": "%"}, {"measurement": "viability, T/C", "setting": "second compound 10 µM, first compound 0.1 µM", "value": 85.8, "unit": "%"}, {"measurement": "viability, T/C", "setting": "second compound 10 µM, first compound 0.316 µM", "value": 104, "unit": "%"}, {"measurement": "viability, T/C", "setting": "second compound 10 µM, first compound 1 µM", "value": 102, "unit": "%"}, {"measurement": "viability, T/C", "setting": "second compound 10 µM, first compound 3.16 µM", "value": 111, "unit": "%"}, {"measurement": "viability, T/C", "setting": "second compound 10 µM, first compound 10 µM", "value": 90, "unit": "%"}]}
{"compound": "CC1COCCN1c1cc(-c2ccnn2C)c2ccnc(-c3ccn[nH]3)c2n1", "note": "(centres undefined)", "values": [{"measurement": "viability, T/C", "setting": "compound 0.0316 µM", "value": "93.7% and 70.9% and 85.8%"}, {"measurement": "viability, T/C", "setting": "compound 0.1 µM", "value": "87% and 64.9% and 70.9%"}, {"measurement": "viability, T/C", "setting": "compound 0.316 µM", "value": "85.9% and 57.1% and 61.9%"}, {"measurement": "viability, T/C", "setting": "compound 1 µM", "value": "44.4% and 47.7% and 48.8%"}, {"measurement": "viability, T/C", "setting": "compound 3.16 µM", "value": "38.5% and 40.5% and 38.8%"}, {"measurement": "viability, T/C", "setting": "compound 10 µM", "value": "33.1% and 23.9% and 32.7%"}, {"measurement": "IC50", "setting": "curve of compound", "value": "0.858 µM and 0.836 µM and 0.903 µM"}]}
